Source: patent publication US4863902A, “Treatment of cancer” (Wakunaga Seiyaku Kabushiki Kaisha, priority 1985, dated 1989)

What was measured:
[1] = system: MX-1 (human breast cancer); test: Tumor weight of transplanted human breast cancer in nude mice; assay type: in vivo, mouse (human tumor xenograft); conditions: Table 4, adriamycin 10 mg/Kg, hEGF 100 μg/Kg on days 1, 8, 10 and 13, average ± standard error of 8 mice
Description: After BALB/c AJcl-nu strain male nude mice were preliminarily fed for one week in an aseptic clean rack maintained at a constant temperature, (23±0.5°
C.) and a constant humidity (60±5%), those which appeared to be healthy weighing around 20 g were provided for the present experiment in 8 mice per group. The mice employed in the present experiments hereinafter were fed under the above environment.
MX-1 (human breast cancer) was cut into sizes of about 1 mm square and transplanted subcutaneously on the right side of mouse axilla by a cell transplanting needle (trocker). 17 days after transplantation, the size of tumor, namely the longer diameter (a mm) and shorter diameter (b mm) were measured and the tumor weight was calculated by the following formula similarly as for Colon 26.
(§1) Tumor weight (mg)=ab^2 /2
(§2) Before carrying out experiments, tumor weights were measured immediately before administration of the compounds (the day 17 after tumor transplantation) and the mice were grouped into 3 groups by use of random numbers so that there may be no difference in average value of the tumor weights on initiation of experiments between the respective groups to make even the average values of tumor weights of the respective groups, and thereafter the compounds were administered to the respective groups.
Administration of the compounds was conducted 4 times as the total on the day 1, the day 8, the day 10 and the day 13. The test solutions were as shown below.

[2] = system: Colon adenocarcinoma 26 (mouse colon adenocarcinoma); test: Tumor weight of transplanted Colon adenocarcinoma 26 in BALB/c mice; assay type: in vivo; conditions: for antitumor effect potentiating action, same experiment as Experimental Example 13: in combination with cyclophosphamide in place of 5-FU
Description: After BALB/c mice were preliminarily fed in a thermostat (23°±0.5° C.), humidistat (60±5%) room for 1 week, those which appear to be healthy weighing 18-20 g were provided for the present experiment in 6-12 mice per 1 group.
(§3) Colon adenocarcinoma 26 (mouse colon adenocarcinoma) was minced into pieces and about 0.1 to 0.2 ml thereof was transplanted subcutaneously on the right side of mouse abdomen by a cell transplanting needle (trocker). Six days after transplantation, the size of tumor, namely longer diameter (a mm) and shorter diameter (b mm) of tumor were measured and the tumor weight was calculated according to the formula shown below [Instruction 14 (NCI) 1980].
as §1
as §2, with “compounds” for “compounds (the day 17 after tumor transplantation)”
In this FIGURE, the axis of abscissa indicates the experimental days with the day of compound administration being the day 1, and the axis of ordinate indicates tumor cell growth ratio which is the ratio of the tumor weight after elapse of the respective days relative to the tumor weight on the day 1 as being 100%.

receptor = receptor (Homo sapiens, UniProt P00533); conditions: J. Biol. Chem., 247, 7659 (1972); cited from earlier work
[3] = system: Colon adenocarcinoma 38 (mouse colon adenocarcinoma); test: Tumor weight of transplanted Colon adenocarcinoma 38 in C57BL/6 mice; assay type: in vivo; conditions: for antitumor effect of (a) + (b) (quantity not headed; method of Experimental Example 4): Table 21
Description: as §3, with “38” for “26”, “Eleven” for “Six”
as §1
In the Table, days indicate the experimental days with the day of compound administration being as the day 1, and the tumor weight immediately before administration of compound of day 1 is made 100. The respective values show the average value ± standard error of case numbers of 10 to 20, in the Table, the marks of (*), * and *** indicate the statistical significance difference of the combined administration group relative to the 5-FU single administration group (the definition of P is as defined above).

[4] = system: mouse ovarian tumor M5076; test: Tumor weight of solid tumor of mouse ovarian tumor in BDF1 mice; assay type: in vivo; conditions: used together with mytomycin C in place of cisplatin
Description: BDF1 male mice were employed. The feeding conditions were the same as in Experimental Example 1.
Mouse ovarian tumor M5076 was transplanted subcutaneously at the axialla of mouse in 1-2×10^6 cells per mouse. 12 days after transplantation, the size of tumor was measured according to the same method as in Experimental Example 1 (Colon 26) and the tumor weight was calculated.
The grouping operation on initiation of Experiments was conducted in the same manner as in Experimental Example 1. The compounds were administered in the same manner as in Experimental Example 9.
The experiment was carried out in the samme manner as in Experimental Examples 1, 7 and as in Experimental Example 17 for others.

[5] = (a) Adriamycin, Mixed injection
[6] = (a) Adriamycin, Separate injection
[7] = (a) Cisplatin, Separate injection

Compound | Tumor weight (day 1 = 100) ([1]; day 4) | Tumor weight (day 1 = 100) ([1]; day 7) | Tumor weight (day 1 = 100) ([1]; day 11) | Tumor weight (day 1 = 100) ([1]; day 14) | antitumor effect potentiating action, same experiment as Experimental Example 13 [2] | antitumor action potentiating effect, same experiment as Experimental Example 8 ([2]; used in place of hEGF in combination with 5 mg/Kg cisplatin) | binding ability of receptor or biological activity (receptor) | antitumor effect of (a) + (b) (quantity not headed; method of Experimental Example 4) [3, 5] | antitumor effect of (a) + (b) (quantity not headed; method of Experimental Example 4) [3, 6] | antitumor effect of (a) + (b) (quantity not headed; method of Experimental Example 4) ([3]; (a) Cisplatin, Mixed injection) | antitumor effect of (a) + (b) (quantity not headed; method of Experimental Example 4) [3, 7] | antitumor effect of (a) + (b) (quantity not headed; method of Experimental Example 4) ([3]; (a) Tegafur, Mixed injection) | antitumor effect of (a) + (b) (quantity not headed; method of Experimental Example 4) ([3]; (a) Tegafur, Separate injection) | tumor cell growth inhibition, same experiment as Experimental Example 4 ([3]; used in place of hEGF in combination with 5-FU) | tumor cell growth inhibition, same experiment as Experimental Example 14 ([3]; used in place of hEGF in combination with Tegafur) | antitumor effect potentiation, same experiment as Experimental Example 17 [4]
COc1cccc2c1C(=O)c1c(O)c3c(c(O)c1C2=O)C[C@@](O)(C(=O)CO)C[C@@H]3O[C@H]1C[C@H](N)[C@H](O)[C@H](C)O1 [Adriamycin, adriamycin] | 162.0 ± 5.4 | 221.8 ± 20.1 | 291.8 ± 21.3 | 256.9 ± 12.7 | – | – | – | – | – | – | – | – | – | – | – | –
hEGF-II: fragment lacking two amino acid residues on the C-terminal side of hEGF (NSDSECPLSHDGYCLHDGVCMYIEALDKYACNCVVGYIGERCQYRDLKWWE; not fully specified; Epidermal growth factor; UniProt P01133 971-1021, looked up, fragment) | – | – | – | – | the same results | the same results | the same as hEGF | 105.6 | 103.3 | 102.3 | 96.6 | 47.8 | 42.8 | the same results | the same results | the same results
hEGF: human epidermal growth factor/urogastrone, 53 amino acid residues, three disulfide bonds | – | – | – | – | the same results | – | – | 103.1 | 98.5 | 88.8 | 80.3 | – | – | – | – | the same results
